# Test results as given in PMC10817531, “Chlorinated Enyne Fatty Acid Amides from a Marine Cyanobacterium: Discovery of Taveuniamides L-M and Pharmacological Characterization of Taveuniamide F as a GPCR Antagonist with CNR1 Selectivity” (Marine Drugs, 2023).
# How the values were obtained:
# Experiment in all cases: PathHunter β-arrestin GpcrMAX assay
# Assay type in all cases: cell-based
# CHRM5 = target: T1, CHRM5 (Homo sapiens, UniProt P08912)
# T1 construct: purchased DiscoveRx (Eurofins) gpcrMAX PathHunter β-arrestin panel
# Protocol: (§1) GpcrMAX panel biosensor assays were used to characterize taveuniamide F (4, 20 µM) (agonist and antagonist mode). The experiments were carried out by DiscoveRx Corporation (Fremont, CA, USA) as described before, using PathHunter β-arrestin enzyme fragment complementation (EFC) technology.
# P2RY4 = target: T2, P2RY4 (Homo sapiens, UniProt P51582)
# T2 construct: purchased DiscoveRx (Eurofins) gpcrMAX PathHunter β-arrestin panel
# Protocol: as §1
# GCGR = target: T3, GCGR (Homo sapiens, UniProt P47871)
# T3 construct: purchased DiscoveRx (Eurofins) gpcrMAX PathHunter β-arrestin panel
# Protocol: as §1
# NPBWR1 = target: T4, NPBWR1 (Homo sapiens, UniProt P48145)
# T4 construct: purchased DiscoveRx (Eurofins) gpcrMAX PathHunter β-arrestin panel
# Protocol: as §1
# MC1R = target: T5, MC1R (Homo sapiens, UniProt Q01726)
# T5 construct: purchased DiscoveRx (Eurofins) gpcrMAX PathHunter β-arrestin panel
# Protocol: as §1
# GPR92 = target: T6, GPR92 (Homo sapiens, UniProt Q9H1C0)
# T6 construct: purchased DiscoveRx (Eurofins) gpcrMAX PathHunter β-arrestin panel
# Protocol: as §1
# PTHR1 = target: T7, PTHR1 (Homo sapiens, UniProt Q03431)
# T7 construct: purchased DiscoveRx (Eurofins) gpcrMAX PathHunter β-arrestin panel
# T7 sequence (Q03431 27-593): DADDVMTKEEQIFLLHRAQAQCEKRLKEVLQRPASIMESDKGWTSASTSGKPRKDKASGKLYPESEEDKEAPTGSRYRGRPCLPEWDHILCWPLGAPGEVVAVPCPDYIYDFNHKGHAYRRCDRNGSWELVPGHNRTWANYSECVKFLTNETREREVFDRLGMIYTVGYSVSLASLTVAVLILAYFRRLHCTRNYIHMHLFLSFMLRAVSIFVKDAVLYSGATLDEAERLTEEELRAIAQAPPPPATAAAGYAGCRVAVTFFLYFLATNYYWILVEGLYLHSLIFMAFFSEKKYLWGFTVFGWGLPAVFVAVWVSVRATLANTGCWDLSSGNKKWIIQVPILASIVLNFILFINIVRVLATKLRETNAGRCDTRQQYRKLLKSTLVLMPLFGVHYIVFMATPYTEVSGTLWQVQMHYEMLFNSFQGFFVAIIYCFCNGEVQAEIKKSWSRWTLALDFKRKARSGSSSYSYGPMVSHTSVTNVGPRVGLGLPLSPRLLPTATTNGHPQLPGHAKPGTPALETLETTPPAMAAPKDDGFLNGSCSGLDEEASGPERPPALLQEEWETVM
# Protocol: as §1
# F2RL1 = target: T8, F2RL1 (Homo sapiens, UniProt P55085)
# T8 construct: purchased DiscoveRx (Eurofins) gpcrMAX PathHunter β-arrestin panel
# Protocol: as §1
# CALCRL-RAMP3 = CALCRL-RAMP3 (Homo sapiens, UniProt O60896+Q16602)
# Protocol: as §1
# CCR4 = target: T9, CCR4 (Homo sapiens, UniProt P51679)
# T9 construct: purchased DiscoveRx (Eurofins) gpcrMAX PathHunter β-arrestin panel
# Protocol: as §1
# DRD5 = target: T10, DRD5 (Homo sapiens, UniProt P21918)
# T10 construct: purchased DiscoveRx (Eurofins) gpcrMAX PathHunter β-arrestin panel
# Protocol: as §1
# CXCR1 = target: T11, CXCR1 (Homo sapiens, UniProt P25024)
# T11 construct: purchased DiscoveRx (Eurofins) gpcrMAX PathHunter β-arrestin panel
# Protocol: as §1
# ADRB1 = target: T12, ADRB1 (Homo sapiens, UniProt P08588)
# T12 construct: purchased DiscoveRx (Eurofins) gpcrMAX PathHunter β-arrestin panel
# Protocol: as §1
# CCR8 = target: T13, CCR8 (Homo sapiens, UniProt P51685)
# T13 construct: purchased DiscoveRx (Eurofins) gpcrMAX PathHunter β-arrestin panel
# T13 sequence (P51685 whole entry): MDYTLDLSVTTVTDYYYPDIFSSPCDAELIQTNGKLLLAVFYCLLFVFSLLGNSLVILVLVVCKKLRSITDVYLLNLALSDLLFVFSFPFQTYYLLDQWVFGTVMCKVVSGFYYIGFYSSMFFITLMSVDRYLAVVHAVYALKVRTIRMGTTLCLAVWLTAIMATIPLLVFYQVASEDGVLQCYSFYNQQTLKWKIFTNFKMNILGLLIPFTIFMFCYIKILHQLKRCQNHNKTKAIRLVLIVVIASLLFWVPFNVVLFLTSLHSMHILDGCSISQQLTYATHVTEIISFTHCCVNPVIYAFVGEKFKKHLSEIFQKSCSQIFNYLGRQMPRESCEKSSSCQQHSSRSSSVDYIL
# Protocol: as §1
# HRH3 = target: T14, HRH3 (Homo sapiens, UniProt Q9Y5N1)
# T14 construct: purchased DiscoveRx (Eurofins) gpcrMAX PathHunter β-arrestin panel
# T14 sequence (Q9Y5N1 whole entry): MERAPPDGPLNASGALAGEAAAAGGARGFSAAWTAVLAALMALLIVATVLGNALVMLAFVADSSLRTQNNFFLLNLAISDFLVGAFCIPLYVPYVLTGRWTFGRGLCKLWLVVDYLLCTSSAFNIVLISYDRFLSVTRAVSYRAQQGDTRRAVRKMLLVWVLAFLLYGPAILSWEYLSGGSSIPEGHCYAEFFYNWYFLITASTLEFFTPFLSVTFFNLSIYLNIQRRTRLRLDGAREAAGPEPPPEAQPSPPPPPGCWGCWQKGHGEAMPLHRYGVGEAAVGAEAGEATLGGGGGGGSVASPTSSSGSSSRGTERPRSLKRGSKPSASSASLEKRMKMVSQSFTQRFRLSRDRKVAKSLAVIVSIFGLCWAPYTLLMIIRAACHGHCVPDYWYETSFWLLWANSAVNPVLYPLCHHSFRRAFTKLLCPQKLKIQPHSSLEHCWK
# Protocol: as §1
# PTHR2 = target: T15, PTHR2 (Homo sapiens, UniProt P49190)
# T15 construct: purchased DiscoveRx (Eurofins) gpcrMAX PathHunter β-arrestin panel
# Protocol: as §1
# HRH4 = target: T16, HRH4 (Homo sapiens, UniProt Q9H3N8)
# T16 construct: purchased DiscoveRx (Eurofins) gpcrMAX PathHunter β-arrestin panel
# T16 sequence (Q9H3N8 whole entry): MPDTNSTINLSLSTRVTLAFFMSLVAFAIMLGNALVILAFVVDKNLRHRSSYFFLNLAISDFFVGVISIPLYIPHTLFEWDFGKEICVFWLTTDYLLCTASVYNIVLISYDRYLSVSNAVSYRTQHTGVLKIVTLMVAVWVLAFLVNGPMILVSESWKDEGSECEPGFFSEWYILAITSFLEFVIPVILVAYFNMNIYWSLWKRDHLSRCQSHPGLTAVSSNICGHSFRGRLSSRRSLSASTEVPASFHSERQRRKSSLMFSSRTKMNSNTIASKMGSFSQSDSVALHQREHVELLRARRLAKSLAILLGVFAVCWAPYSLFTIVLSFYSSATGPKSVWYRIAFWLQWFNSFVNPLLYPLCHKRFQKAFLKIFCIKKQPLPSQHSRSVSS
# Protocol: as §1
# KISS1R = target: T17, KISS1R (Homo sapiens, UniProt Q969F8)
# T17 construct: purchased DiscoveRx (Eurofins) gpcrMAX PathHunter β-arrestin panel
# Protocol: as §1
# AVPR1A = AVPR1A (Homo sapiens, UniProt P37288)
# Protocol: as §1
# CXCR5 = target: T18, CXCR5 (Homo sapiens, UniProt P32302)
# T18 construct: purchased DiscoveRx (Eurofins) gpcrMAX PathHunter β-arrestin panel
# Protocol: as §1
# HRH2 = target: T19, HRH2 (Homo sapiens, UniProt P25021)
# T19 construct: purchased DiscoveRx (Eurofins) gpcrMAX PathHunter β-arrestin panel
# Protocol: as §1
# OPRD1 = target: T20, OPRD1 (Homo sapiens, UniProt P41143)
# T20 construct: purchased DiscoveRx (Eurofins) gpcrMAX PathHunter β-arrestin panel
# T20 sequence (P41143 whole entry): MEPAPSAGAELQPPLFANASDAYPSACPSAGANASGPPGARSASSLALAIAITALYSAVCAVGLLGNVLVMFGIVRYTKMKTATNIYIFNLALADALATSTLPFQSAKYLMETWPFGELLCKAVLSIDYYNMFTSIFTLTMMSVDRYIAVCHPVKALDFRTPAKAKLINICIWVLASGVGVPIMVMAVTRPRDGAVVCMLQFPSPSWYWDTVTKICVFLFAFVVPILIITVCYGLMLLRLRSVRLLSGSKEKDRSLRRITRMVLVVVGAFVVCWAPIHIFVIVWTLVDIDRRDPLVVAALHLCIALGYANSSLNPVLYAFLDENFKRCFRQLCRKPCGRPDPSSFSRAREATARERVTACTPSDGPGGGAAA
# Protocol: as §1
# UTR2 = target: T21, UTR2 (Homo sapiens, UniProt Q9UKP6)
# T21 construct: purchased DiscoveRx (Eurofins) gpcrMAX PathHunter β-arrestin panel
# T21 sequence (Q9UKP6 whole entry): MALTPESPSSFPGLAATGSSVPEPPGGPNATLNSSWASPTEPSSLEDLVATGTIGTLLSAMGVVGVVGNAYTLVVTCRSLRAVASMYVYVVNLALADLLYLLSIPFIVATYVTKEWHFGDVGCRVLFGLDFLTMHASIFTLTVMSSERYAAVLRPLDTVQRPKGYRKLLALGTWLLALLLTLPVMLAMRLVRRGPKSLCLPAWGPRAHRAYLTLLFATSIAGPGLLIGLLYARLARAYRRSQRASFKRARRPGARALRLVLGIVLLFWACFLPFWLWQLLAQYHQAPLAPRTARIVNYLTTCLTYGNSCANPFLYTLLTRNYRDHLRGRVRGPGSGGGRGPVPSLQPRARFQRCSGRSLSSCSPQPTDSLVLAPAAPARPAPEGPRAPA
# Protocol: as §1
# DRD1 = target: T22, DRD1 (Homo sapiens, UniProt P21728)
# T22 construct: purchased DiscoveRx (Eurofins) gpcrMAX PathHunter β-arrestin panel
# Protocol: as §1
# GPR1 = target: T23, GPR1 (Homo sapiens, UniProt P46091)
# T23 construct: purchased DiscoveRx (Eurofins) gpcrMAX PathHunter β-arrestin panel
# Protocol: as §1
# PTAFR = target: T24, PTAFR (Homo sapiens, UniProt P25105)
# T24 construct: purchased DiscoveRx (Eurofins) gpcrMAX PathHunter β-arrestin panel
# Protocol: as §1
# NTSR1 = target: T25, NTSR1 (Homo sapiens, UniProt P30989)
# T25 construct: purchased DiscoveRx (Eurofins) gpcrMAX PathHunter β-arrestin panel
# Protocol: as §1
# NPY1R = target: T26, NPY1R (Homo sapiens, UniProt P25929)
# T26 construct: purchased DiscoveRx (Eurofins) gpcrMAX PathHunter β-arrestin panel
# T26 sequence (P25929 whole entry): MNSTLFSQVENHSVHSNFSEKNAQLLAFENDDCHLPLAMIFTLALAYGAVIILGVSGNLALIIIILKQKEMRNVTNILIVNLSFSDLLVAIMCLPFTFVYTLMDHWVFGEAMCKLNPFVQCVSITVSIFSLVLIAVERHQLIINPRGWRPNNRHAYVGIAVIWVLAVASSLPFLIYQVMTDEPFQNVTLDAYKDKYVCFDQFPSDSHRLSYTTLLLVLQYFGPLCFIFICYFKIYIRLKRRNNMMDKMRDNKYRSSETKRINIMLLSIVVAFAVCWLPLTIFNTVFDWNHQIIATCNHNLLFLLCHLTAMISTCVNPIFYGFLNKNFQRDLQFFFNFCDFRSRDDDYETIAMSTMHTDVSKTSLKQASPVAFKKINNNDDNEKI
# Protocol: as §1
# FSHR = target: T27, FSHR (Homo sapiens, UniProt P23945)
# T27 construct: purchased DiscoveRx (Eurofins) gpcrMAX PathHunter β-arrestin panel
# Protocol: as §1
# MCHR2 = target: T28, MCHR2 (Homo sapiens, UniProt Q969V1)
# T28 construct: purchased DiscoveRx (Eurofins) gpcrMAX PathHunter β-arrestin panel
# Protocol: as §1
# TACR2 = target: T29, TACR2 (Homo sapiens, UniProt P21452)
# T29 construct: purchased DiscoveRx (Eurofins) gpcrMAX PathHunter β-arrestin panel
# Protocol: as §1
# CRHR1 = target: T30, CRHR1 (Homo sapiens, UniProt P34998)
# T30 construct: purchased DiscoveRx (Eurofins) gpcrMAX PathHunter β-arrestin panel
# Protocol: as §1
# PTGER3 = target: T31, PTGER3 (Homo sapiens, UniProt P43115)
# T31 construct: purchased DiscoveRx (Eurofins) gpcrMAX PathHunter β-arrestin panel
# T31 sequence (P43115 whole entry): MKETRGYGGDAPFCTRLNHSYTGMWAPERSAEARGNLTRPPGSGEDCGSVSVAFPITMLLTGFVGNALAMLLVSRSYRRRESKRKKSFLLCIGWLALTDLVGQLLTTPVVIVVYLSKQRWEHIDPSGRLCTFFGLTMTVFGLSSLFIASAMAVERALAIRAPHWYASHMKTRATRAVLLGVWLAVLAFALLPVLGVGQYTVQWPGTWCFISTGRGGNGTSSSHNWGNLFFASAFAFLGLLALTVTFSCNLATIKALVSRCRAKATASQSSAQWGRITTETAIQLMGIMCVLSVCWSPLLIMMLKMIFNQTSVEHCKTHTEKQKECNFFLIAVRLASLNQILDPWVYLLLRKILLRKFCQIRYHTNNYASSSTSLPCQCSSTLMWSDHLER
# Protocol: as §1
# DRD2S = target: T32, DRD2S (Homo sapiens, UniProt P14416)
# T32 construct: purchased DiscoveRx (Eurofins) gpcrMAX PathHunter β-arrestin panel
# Protocol: as §1
# P2RY11 = target: T33, P2RY11 (Homo sapiens, UniProt Q96G91)
# T33 construct: purchased DiscoveRx (Eurofins) gpcrMAX PathHunter β-arrestin panel
# Protocol: as §1
# CCR1 = target: T34, CCR1 (Homo sapiens, UniProt P32246)
# T34 construct: purchased DiscoveRx (Eurofins) gpcrMAX PathHunter β-arrestin panel
# Protocol: as §1
# NMU1R = target: T35, NMU1R (Homo sapiens, UniProt Q9HB89)
# T35 construct: purchased DiscoveRx (Eurofins) gpcrMAX PathHunter β-arrestin panel
# T35 sequence (Q9HB89 whole entry): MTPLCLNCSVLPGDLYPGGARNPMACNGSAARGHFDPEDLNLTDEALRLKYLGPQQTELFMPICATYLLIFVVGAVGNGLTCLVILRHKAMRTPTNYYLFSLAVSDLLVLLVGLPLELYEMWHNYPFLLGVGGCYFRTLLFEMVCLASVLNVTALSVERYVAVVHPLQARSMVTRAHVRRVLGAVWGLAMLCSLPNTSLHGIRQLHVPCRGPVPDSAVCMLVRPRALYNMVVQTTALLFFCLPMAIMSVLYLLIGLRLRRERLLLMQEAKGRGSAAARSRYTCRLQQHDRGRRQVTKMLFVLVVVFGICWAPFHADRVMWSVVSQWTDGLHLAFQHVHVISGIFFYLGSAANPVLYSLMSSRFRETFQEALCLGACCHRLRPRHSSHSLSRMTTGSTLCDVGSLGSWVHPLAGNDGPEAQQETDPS
# Protocol: as §1
# HTR1A = target: T36, HTR1A (Homo sapiens, UniProt P08908)
# T36 construct: purchased DiscoveRx (Eurofins) gpcrMAX PathHunter β-arrestin panel
# T36 sequence (P08908 whole entry): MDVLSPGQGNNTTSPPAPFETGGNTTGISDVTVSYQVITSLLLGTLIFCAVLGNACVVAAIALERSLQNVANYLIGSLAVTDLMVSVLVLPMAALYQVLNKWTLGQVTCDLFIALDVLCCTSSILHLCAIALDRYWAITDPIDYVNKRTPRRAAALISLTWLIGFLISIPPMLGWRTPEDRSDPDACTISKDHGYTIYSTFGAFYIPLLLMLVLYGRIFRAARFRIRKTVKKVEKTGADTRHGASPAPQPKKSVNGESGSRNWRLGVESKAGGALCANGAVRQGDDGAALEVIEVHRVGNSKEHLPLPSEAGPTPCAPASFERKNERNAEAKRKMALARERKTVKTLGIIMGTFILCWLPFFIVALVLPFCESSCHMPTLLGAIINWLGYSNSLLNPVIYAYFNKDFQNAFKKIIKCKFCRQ
# Protocol: as §1
# BDKRB2 = BDKRB2 (Homo sapiens, UniProt P30411)
# Chain of BDKRB2 (P30411 whole entry): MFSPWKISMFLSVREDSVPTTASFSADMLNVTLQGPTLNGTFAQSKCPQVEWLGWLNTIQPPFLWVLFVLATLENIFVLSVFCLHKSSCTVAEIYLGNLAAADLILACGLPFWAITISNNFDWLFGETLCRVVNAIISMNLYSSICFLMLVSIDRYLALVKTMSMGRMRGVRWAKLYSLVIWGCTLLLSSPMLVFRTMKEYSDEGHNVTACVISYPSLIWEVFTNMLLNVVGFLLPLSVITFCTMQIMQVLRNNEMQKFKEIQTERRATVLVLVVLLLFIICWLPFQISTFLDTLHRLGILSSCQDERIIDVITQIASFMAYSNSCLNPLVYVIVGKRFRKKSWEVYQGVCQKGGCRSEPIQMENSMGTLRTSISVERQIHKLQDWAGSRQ
# Protocol: as §1
# EDNRA = target: T37, EDNRA (Homo sapiens, UniProt P25101)
# T37 construct: purchased DiscoveRx (Eurofins) gpcrMAX PathHunter β-arrestin panel
# T37 sequence (P25101 21-427): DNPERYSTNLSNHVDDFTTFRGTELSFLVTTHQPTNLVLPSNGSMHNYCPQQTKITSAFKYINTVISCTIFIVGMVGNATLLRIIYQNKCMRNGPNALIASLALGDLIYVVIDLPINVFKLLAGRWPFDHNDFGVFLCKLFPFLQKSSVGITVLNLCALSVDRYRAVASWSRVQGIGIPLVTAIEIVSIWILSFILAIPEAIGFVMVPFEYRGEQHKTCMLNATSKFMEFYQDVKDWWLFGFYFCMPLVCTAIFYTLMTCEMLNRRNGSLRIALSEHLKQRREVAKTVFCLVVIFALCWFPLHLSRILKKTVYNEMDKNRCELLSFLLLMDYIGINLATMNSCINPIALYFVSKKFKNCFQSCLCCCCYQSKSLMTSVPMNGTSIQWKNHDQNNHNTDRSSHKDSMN
# Protocol: as §1
# HTR1B = target: T38, HTR1B (Homo sapiens, UniProt P28222)
# T38 construct: purchased DiscoveRx (Eurofins) gpcrMAX PathHunter β-arrestin panel
# Protocol: as §1
# P2RY1 = target: T39, P2RY1 (Homo sapiens, UniProt P47900)
# T39 construct: purchased DiscoveRx (Eurofins) gpcrMAX PathHunter β-arrestin panel
# Protocol: as §1
# VIPR2 = target: T40, VIPR2 (Homo sapiens, UniProt P41587)
# T40 construct: purchased DiscoveRx (Eurofins) gpcrMAX PathHunter β-arrestin panel
# Protocol: as §1
compound,measurement,setting,value
"CC(=O)N[C@@H](CCCC#C/C=C/Cl)CCCCCCC(Cl)Cl [Compound 4, taveuniamide F]",inhibition at 20 µM,CHRM5,31.6%
same,inhibition at 20 µM,P2RY4,68.8%
same,inhibition at 20 µM,GCGR,2.2%
same,inhibition at 20 µM,NPBWR1,-12.1%
same,inhibition at 20 µM,MC1R,10.2%
same,inhibition at 20 µM,GPR92,56.5%
same,inhibition at 20 µM,PTHR1,17.5%
same,inhibition at 20 µM,F2RL1,-6.7%
same,inhibition at 20 µM,CALCRL-RAMP3,19.3%
same,inhibition at 20 µM,CCR4,58.9%
same,inhibition at 20 µM,DRD5,2.7%
same,inhibition at 20 µM,CXCR1,15.3%
same,inhibition at 20 µM,ADRB1,52.7%
same,inhibition at 20 µM,CCR8,43%
same,inhibition at 20 µM,HRH3,5%
same,inhibition at 20 µM,PTHR2,30.4%
same,inhibition at 20 µM,HRH4,38.1%
same,inhibition at 20 µM,KISS1R,31.5%
same,inhibition at 20 µM,AVPR1A,48.5%
same,inhibition at 20 µM,CXCR5,5.1%
same,inhibition at 20 µM,HRH2,24.1%
same,inhibition at 20 µM,OPRD1,7.2%
same,inhibition at 20 µM,UTR2,17.7%
same,inhibition at 20 µM,DRD1,18.6%
same,inhibition at 20 µM,GPR1,18.7%
same,inhibition at 20 µM,PTAFR,14.3%
same,inhibition at 20 µM,NTSR1,18.8%
same,inhibition at 20 µM,NPY1R,3.4%
same,inhibition at 20 µM,FSHR,40.5%
same,inhibition at 20 µM,MCHR2,21.4%
same,inhibition at 20 µM,TACR2,59.3%
same,inhibition at 20 µM,CRHR1,-2.4%
same,inhibition at 20 µM,PTGER3,-13%
same,inhibition at 20 µM,DRD2S,-8.1%
same,inhibition at 20 µM,P2RY11,8.2%
same,inhibition at 20 µM,CCR1,65.7%
same,inhibition at 20 µM,NMU1R,30.1%
same,inhibition at 20 µM,HTR1A,15.2%
same,inhibition at 20 µM,BDKRB2,8.4%
same,inhibition at 20 µM,EDNRA,30.7%
same,inhibition at 20 µM,HTR1B,33.9%
same,inhibition at 20 µM,P2RY1,5.5%
same,inhibition at 20 µM,VIPR2,4.6%
